Test results published in US8026247B2, “Bicyclic amides as kinase inhibitors” (Novartis AG, priority 2004, dated 2011).

melting point [°C]	Structure (SMILES)
117 to 120	NC(=O)c1cc(Oc2ccc3c(C(=O)Nc4cccc(C(F)(F)F)c4)cccc3c2)ccn1 [Example 66, 4-[5-(3-Trifluoromethyl-phenylcarbamoyl)-naphthalen-2-yloxy]-pyridine-2-carboxylic acid amide]
255 to 257	CNc1cc(Oc2ccc3c(C(=O)Nc4ccc(F)c(C(F)(F)F)c4)cncc3c2)ncn1 [Example 95, 7-(6-Methylamino-pyrimidin-4-yloxy)-isoquinoline-4-carboxylic acid (4-fluoro-3-trifluoromethyl-phenyl)-amide]
128 to 130	CCCCOC(=O)c1cc(Oc2ccc3c(C(=O)Nc4cccc(C(F)(F)F)c4)cccc3c2)ccn1 [Example 64, 4-[5-(3-Trifluoromethyl-phenylcarbamoyl)-naphthalen-2-yloxy]-pyridine-2-carboxylic acid butyl ester]
175 to 177	CNC(=O)c1cc(Oc2ccc3c(C(=O)Nc4cccc(C(F)(F)F)c4)cccc3c2)ccn1 [Example 65, 4-[5-(3-Trifluoromethyl-phenylcarbamoyl)-naphthalen-2-yloxy]-pyridine-2-carboxylic acid methylamide]
156 to 157	CNc1cc(Oc2ccc3c(C(=O)Nc4ccc(N5CCOCC5)c(C(F)(F)F)c4)cccc3c2)ncn1 [Example 40, 6-(6-Methylamino-pyrimidin-4-yloxy)-naphthalene-1-carboxylic acid (4-morpholin-4-yl-3-trifluoromethyl-phenyl)-amide]
216 to 217	CC(=O)Nc1nccc(Oc2ccc3c(C(=O)Nc4cccc(C(F)(F)F)c4)cccc3c2)n1 [Example 18, 6-(2-Acetylamino-pyrimidin-4-yloxy)-naphthalene-1-carboxylic acid (3-trifluoromethyl-phenyl)-amide]
180 to 181	CN(C)Cc1cc(Oc2ccc3c(C(=O)Nc4cccc(C(F)(F)F)c4)cccc3c2)ncn1 [Example 55, 6-(6-Dimethylaminomethyl-pyrimidin-4-yloxy)-naphthalene-1-carboxylic acid (3-trifluoromethyl-phenyl)-amide]
124 to 126	CC(C)(C)c1cc(NC(=O)c2cncc3cc(Oc4cc(N)ncn4)ccc23)n(-c2ccc(F)cc2)n1 [Example 94, 7-(6-Amino-pyrimidin-4-yloxy)-isoquinoline-4-carboxylic acid [5-tert-butyl-2-(4-fluoro-phenyl)-2H-pyrazol-3-yl]-amide]
199 to 200	COC(=O)Nc1nccc(Oc2ccc3c(C(=O)Nc4cccc(C(F)(F)F)c4)cccc3c2)n1 [Example 19, 6-(2-Methoxycarbonylamino-pyrimidin-4-yloxy)-naphthalene-1-carboxylic acid (3-trifluoromethyl-phenyl)-amide]
80 to 82	CN(C)CCNC(=O)c1cc(Oc2ccc3c(C(=O)Nc4cccc(C(F)(F)F)c4)cccc3c2)ccn1 [Example 67, 4-[5-(3-Trifluoromethyl-phenylcarbamoyl)-naphthalen-2-yloxy]-pyridine-2-carboxylic acid (2-dimethylamino-ethyl)-amide]
197 to 199	Nc1cc(Sc2ccc3c(C(=O)Nc4cccc(OC(F)(F)F)c4)cccc3c2)ncn1 [Example 61, 6-(6-Amino-pyrimidin-4-ylsulfanyl)-naphthalene-1-carboxylic acid (3-trifluoromethoxy-phenyl)-amide]
225 to 227	Nc1nccc(CCc2ccc3c(C(=O)Nc4cccc(C(F)(F)F)c4)cccc3c2)n1 [Example 70, 6-[2-(2-Amino-pyrimidin-4-yl)-ethyl]-naphthalene-1-carboxylic acid (3-trifluoromethyl-phenyl)-amide]
234 to 236	Nc1nc(Cl)cc(Oc2ccc3c(C(=O)Nc4cccc(C(F)(F)F)c4)cccc3c2)n1 [Example 13, 6-(2-Amino-6-chloro-pyrimidin-4-yloxy)-naphthalene-1-carboxylic acid (3-trifluoromethyl-phenyl)-amide]
180 to 182	CNc1cc(Oc2ccc3c(c2)OCCN3C(=O)Nc2ccc(C)c(C(F)(F)F)c2)ncn1 [Example 8, 7-(6-Methylamino-pyrimidin-4-yloxy)-2,3-dihydro-benzo[1,4]oxazine-4-carboxylic acid (4-methyl-3-trifluoromethyl-phenyl)-amide]
243 to 244	Nc1cc(Oc2ccc3c(C(=O)Nc4cccc(C(F)(F)F)c4)cccc3c2)ncn1 [Example 26, 6-(6-Amino-pyrimidin-4-yloxy)-naphthalene-1-carboxylic acid (3-trifluoromethyl-phenyl)-amide]
161 to 163	Nc1nccc(Oc2ccc3c(c2)OCCN3C(=O)Nc2cccc(C(F)(F)F)c2)n1 [Example 10, 7-(2-Amino-pyrimidin-4-yloxy)-2,3-dihydro-benzo[1,4]oxazine-4-carboxylic acid (3-trifluoromethyl-phenyl)-amide]
141 to 143	CNCc1cc(Oc2ccc3c(C(=O)Nc4cccc(C(F)(F)F)c4)cccc3c2)ncn1 [Example 54, 6-(6-Methylaminomethyl-pyrimidin-4-yloxy)-naphthalene-1-carboxylic acid (3-trifluoromethyl-phenyl)-amide]
178 to 181	O=C(Nc1cccc(C(F)(F)F)c1)c1cccc2cc(Oc3cc(CCl)ncn3)ccc12 [Example 53, 6-(6-Chloromethyl-pyrimidin-4-yloxy)-naphthalene-1-carboxylic acid (3-trifluoromethyl-phenyl)-amide]
131 to 133	CC(C)c1ccc(-n2nc(C(C)(C)C)cc2NC(=O)c2cncc3cc(Oc4cc(N)ncn4)ccc23)cc1 [Example 93, 7-(6-Amino-pyrimidin-4-yloxy)-isoquinoline-4-carboxylic acid [5-tert-butyl-2-(4-isopropyl-phenyl)-2H-pyrazol-3-yl]-amide]
180	CNc1cc(Oc2ccc3c(c2)OCCN3C(=O)Nc2cccc(C(F)(F)F)c2)ncn1 [Example 9, 7-(6-Methylamino-pyrimidin-4-yloxy)-2,3-dihydro-benzo[1,4]oxazine-4-carboxylic acid (3-trifluoromethyl-phenyl)-amide]
205	Nc1cc(Sc2ccc3c(C(=O)Nc4cccc(C(F)(F)F)c4)cccc3c2)ncn1 [Example 58, 6-(6-Amino-pyrimidin-4-ylsulfanyl)-naphthalene-1-carboxylic acid (3-trifluoromethyl-phenyl)-amide]
205 to 208	CNc1cc(Oc2ccc3c(C(=O)Nc4cccc(C(F)(F)F)c4)cncc3c2)ncn1 [Example 96, 7-(6-Methylamino-pyrimidin-4-yloxy)-isoquinoline-4-carboxylic acid (3-trifluoromethyl-phenyl)-amide]
217 to 220	Nc1cc(C#Cc2ccc3c(C(=O)Nc4cccc(C(F)(F)F)c4)cccc3c2)ncn1 [Example 71, 6-(6-Amino-pyrimidin-4-ylethynyl)-naphthalene-1-carboxylic acid (3-trifluoromethyl-phenyl)-amide]
205 to 208	CC(C)NC(=O)c1cc(Oc2ccc3c(C(=O)Nc4cccc(C(F)(F)F)c4)cccc3c2)ncn1 [Example 51, 6-[5-(3-Trifluoromethyl-phenylcarbamoyl)-naphthalen-2-yloxy]-pyrimidine-4-carboxylic acid isopropylamide]
229 to 231	Nc1cc(S(=O)(=O)c2ccc3c(C(=O)Nc4cccc(C(F)(F)F)c4)cccc3c2)ncn1 [Example 60, 6-(6-Amino-pyrimidine-4-sulfonyl)-naphthalene-1-carboxylic acid (3-trifluoromethyl-phenyl)-amide]
224 to 225	Nc1cc(Oc2ccc3c(C(=O)Nc4ccc(F)c(C(F)(F)F)c4)cccc3c2)ncn1 [Example 25, 6-(6-Amino-pyrimidin-4-yloxy)-naphthalene-1-carboxylic acid (4-fluoro-3-trifluoromethyl-phenyl)-amide]
221	Nc1cc(Sc2ccc3c(C(=O)Nc4ccc(F)c(C(F)(F)F)c4)cccc3c2)ncn1 [Example 57, 6-(6-Amino-pyrimidin-4-ylsulfanyl)-naphthalene-1-carboxylic acid (4-fluoro-3-trifluoromethyl-phenyl)-amide]
167	N#Cc1cc(Oc2ccc3c(C(=O)Nc4cccc(C(F)(F)F)c4)cccc3c2)ncn1 [Example 43, 6-(6-Cyano-pyrimidin-4-yloxy)-naphthalene-1-carboxylic acid (3-trifluoromethyl-phenyl)-amide]
230 to 232	COC(=O)Nc1cc(Oc2ccc3c(C(=O)Nc4cccc(C(F)(F)F)c4)cccc3c2)ccn1 [Example 69, {4-[5-(3-Trifluoromethyl-phenylcarbamoyl)-naphthalen-2-yloxy]-pyridin-2-yl}-carbamic acid methyl ester]
222 to 224	Nc1cc(Oc2ccc3c(C(=O)Nc4cccc(C(F)(F)F)c4)cccc3c2)ccn1 [Example 68, 6-(2-Amino-pyridin-4-yloxy)-naphthalene-1-carboxylic acid (3-trifluoromethyl-phenyl)-amide]
